Experimental data reported in patent US12606568B2, “SMARCA degraders and uses thereof” (Kymera Therapeutics, Inc., priority 2020, dated 2026).

Assays:
Format in all cases: cell-based
SMARCA4 = target: T1, SMARCA4 (Homo sapiens, UniProt P51532); assay: SMARCA4 Western blot MV4-11 degradation; conditions: 24 h; for Dmax: MV4-11, MV4-11 cells, read-out: SMARCA4 MSD MV411 degradation 24 h: average Dmax %; for DC50: MV4-11 cells, read-out: SMARCA4 MSD MV411 degradation 24 h: Mean external-Abs DC50
T1 construct: SMARCA2 and SMARCA4 protein degradation in MV4-11 cells; endogenous in cells; host or cells: MV4-11
T1 sequence (P51532 whole entry): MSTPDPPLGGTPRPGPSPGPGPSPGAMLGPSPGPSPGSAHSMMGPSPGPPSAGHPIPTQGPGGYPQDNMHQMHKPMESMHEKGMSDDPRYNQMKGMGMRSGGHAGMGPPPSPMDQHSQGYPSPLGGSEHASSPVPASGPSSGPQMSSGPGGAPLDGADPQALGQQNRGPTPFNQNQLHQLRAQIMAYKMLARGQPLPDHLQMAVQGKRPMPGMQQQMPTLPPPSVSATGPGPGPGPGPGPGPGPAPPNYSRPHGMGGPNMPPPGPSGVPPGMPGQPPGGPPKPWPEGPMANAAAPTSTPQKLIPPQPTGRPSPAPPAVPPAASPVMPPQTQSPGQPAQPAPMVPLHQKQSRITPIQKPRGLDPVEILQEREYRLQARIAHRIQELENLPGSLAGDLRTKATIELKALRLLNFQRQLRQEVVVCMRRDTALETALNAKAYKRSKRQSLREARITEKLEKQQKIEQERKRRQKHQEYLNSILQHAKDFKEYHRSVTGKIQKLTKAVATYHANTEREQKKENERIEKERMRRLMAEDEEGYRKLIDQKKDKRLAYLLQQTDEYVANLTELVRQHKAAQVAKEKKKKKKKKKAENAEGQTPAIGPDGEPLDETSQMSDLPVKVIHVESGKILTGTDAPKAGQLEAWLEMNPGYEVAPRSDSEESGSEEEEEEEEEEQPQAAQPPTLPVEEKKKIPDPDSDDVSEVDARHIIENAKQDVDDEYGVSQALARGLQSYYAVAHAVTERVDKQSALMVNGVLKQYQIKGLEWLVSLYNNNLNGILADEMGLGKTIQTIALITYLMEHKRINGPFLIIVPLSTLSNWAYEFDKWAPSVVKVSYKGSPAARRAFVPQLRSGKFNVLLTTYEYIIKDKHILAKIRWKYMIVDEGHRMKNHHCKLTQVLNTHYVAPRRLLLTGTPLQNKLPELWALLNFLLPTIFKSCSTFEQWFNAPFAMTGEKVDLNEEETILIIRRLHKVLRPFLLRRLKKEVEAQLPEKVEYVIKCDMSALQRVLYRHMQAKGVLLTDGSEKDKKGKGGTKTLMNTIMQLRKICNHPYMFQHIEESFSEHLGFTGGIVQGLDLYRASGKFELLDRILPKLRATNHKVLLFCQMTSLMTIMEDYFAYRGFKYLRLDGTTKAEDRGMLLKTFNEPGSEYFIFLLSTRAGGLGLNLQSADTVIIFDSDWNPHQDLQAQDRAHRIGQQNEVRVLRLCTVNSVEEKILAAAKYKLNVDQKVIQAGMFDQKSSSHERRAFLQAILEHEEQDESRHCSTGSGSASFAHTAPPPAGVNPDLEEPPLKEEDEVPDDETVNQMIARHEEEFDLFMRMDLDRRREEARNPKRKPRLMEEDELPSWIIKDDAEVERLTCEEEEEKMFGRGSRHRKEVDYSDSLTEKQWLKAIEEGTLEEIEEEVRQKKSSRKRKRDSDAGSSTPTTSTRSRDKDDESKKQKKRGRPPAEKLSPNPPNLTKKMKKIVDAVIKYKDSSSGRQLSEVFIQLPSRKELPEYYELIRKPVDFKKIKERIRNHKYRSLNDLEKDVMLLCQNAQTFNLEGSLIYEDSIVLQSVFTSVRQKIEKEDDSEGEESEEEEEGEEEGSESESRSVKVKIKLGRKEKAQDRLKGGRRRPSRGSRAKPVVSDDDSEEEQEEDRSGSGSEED

SMARCA2 [1] = target: T2, SMARCA2 (Homo sapiens, UniProt P51531); assay: MSD SMARCA2 degradation in A549 cell line; set-up: endogenous in cells; conditions: 24 h; for Dmax: A549, A549 cells; for DC50: A549 cells, read-out: SMARCA2 MSD A549 degradation 24 h: Average external-Abs DC50
T2 sequence (P51531 whole entry): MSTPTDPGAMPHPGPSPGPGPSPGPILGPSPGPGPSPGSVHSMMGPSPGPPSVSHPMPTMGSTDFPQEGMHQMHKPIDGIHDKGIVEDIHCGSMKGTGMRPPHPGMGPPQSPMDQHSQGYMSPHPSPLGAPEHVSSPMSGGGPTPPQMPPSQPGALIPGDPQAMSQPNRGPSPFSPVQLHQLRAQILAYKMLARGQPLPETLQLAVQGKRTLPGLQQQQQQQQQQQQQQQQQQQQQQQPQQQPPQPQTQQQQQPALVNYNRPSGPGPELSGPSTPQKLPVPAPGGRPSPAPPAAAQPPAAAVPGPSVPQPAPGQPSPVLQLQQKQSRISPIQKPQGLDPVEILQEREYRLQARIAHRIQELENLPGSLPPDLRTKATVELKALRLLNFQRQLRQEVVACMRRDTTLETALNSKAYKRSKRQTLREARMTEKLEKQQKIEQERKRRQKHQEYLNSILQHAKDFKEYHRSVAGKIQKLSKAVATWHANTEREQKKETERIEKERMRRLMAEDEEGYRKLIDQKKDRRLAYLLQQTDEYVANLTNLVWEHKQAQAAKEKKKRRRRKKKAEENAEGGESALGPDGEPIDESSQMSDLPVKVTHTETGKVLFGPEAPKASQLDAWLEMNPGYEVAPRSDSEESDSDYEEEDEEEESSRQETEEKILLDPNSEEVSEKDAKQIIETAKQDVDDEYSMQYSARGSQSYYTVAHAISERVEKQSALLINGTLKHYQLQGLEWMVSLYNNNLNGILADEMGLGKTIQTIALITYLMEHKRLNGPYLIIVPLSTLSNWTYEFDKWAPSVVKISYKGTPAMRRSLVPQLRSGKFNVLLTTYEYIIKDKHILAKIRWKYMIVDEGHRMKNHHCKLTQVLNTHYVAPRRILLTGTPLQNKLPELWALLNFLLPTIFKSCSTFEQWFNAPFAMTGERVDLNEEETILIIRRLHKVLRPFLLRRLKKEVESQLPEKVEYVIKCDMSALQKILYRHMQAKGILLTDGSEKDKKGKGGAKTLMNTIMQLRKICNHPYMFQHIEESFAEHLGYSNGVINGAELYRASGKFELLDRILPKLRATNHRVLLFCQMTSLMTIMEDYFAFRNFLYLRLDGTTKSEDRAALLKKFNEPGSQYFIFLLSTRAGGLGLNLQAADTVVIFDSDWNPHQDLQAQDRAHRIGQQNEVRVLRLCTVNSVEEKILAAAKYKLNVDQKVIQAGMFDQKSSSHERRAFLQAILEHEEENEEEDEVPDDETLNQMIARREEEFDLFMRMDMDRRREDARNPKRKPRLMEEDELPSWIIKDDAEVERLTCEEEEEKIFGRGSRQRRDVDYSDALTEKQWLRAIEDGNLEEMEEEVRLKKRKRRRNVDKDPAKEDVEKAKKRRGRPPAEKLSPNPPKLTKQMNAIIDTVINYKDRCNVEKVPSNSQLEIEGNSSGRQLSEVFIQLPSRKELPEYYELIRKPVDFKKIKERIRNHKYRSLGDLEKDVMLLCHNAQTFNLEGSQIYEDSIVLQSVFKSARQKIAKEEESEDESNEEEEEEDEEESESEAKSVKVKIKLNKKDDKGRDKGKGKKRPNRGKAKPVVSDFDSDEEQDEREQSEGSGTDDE
Outline: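 A549 cells treated 24 h with compound, 3-fold series 1000 nM down to 0.152 nM plus DMSO. RIPA lysates captured on MSD plates, probed with rabbit anti-SMARCA2/BRM (1 µg/ml) then SULFO-TAG anti-rabbit, electrochemiluminescence read. DC50 and 24 h Dmax reported as letter bins.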

SMARCA2 [2] = target: T2, SMARCA2; assay: SMARCA2 Western blot MV4-11 degradation; set-up: SMARCA2 and SMARCA4 protein degradation in MV4-11 cells; endogenous in cells; host or cells: MV4-11; conditions: 24 h; for Dmax: MV4-11, MV4-11 cells, read-out: SMARCA2 MSD MV411 degradation 24 h: average Dmax %; for DC50: MV4-11 cells, read-out: SMARCA2 MSD MV411 degradation 24 h: Mean external-Abs DC50

With `Cc1ncsc1-c1ccc(CNC(=O)[C@@H]2C[C@@H](O)CN2C(=O)[C@@H](NC(=O)C2CC3(C2)CC(N2CCC(COc4ccc(N5C6CCC5CN(c5cc(-c7ccccc7O)nnc5N)C6)cn4)CC2)C3)C(C)(C)C)cc1` (stereo partly drawn) [I-41, (2S,4R)-1-((2S)-2-(6-(4-(((5-(3-(3-amino-6-(2-hydroxyphenyl)pyridazin-4-yl)-3,8-diazabi-cyclo[3.2.1]octan-8-yl)pyridin-2-yl)oxy)methyl)piperidin-1-yl)spiro[3.3]heptane-2-carbox-amido)-3,3-dimethylbutanoyl)-4-hydroxy-N-(4-(4-methylthiazol-5-yl)benzyl)pyrrolidine-2-carboxamide] the Dmax (SMARCA4) was > 90%, the DC50 (SMARCA4) was > 1 µM and the Dmax (SMARCA2 [1]) was 50 to 70%. For the same compound, the DC50 (SMARCA2 [1]) was > 1 µM, the Dmax (SMARCA2 [2]) was < 50% and the DC50 (SMARCA2 [2]) was > 1 µM.

For `Cc1ncsc1-c1ccc(CNC(=O)[C@@H]2C[C@@H](O)CN2C(=O)C(c2cc(OCCN3CCC(c4cnc(N5C6CCC5CN(c5cc(-c7ccccc7O)nnc5N)C6)nc4)CC3)no2)C(C)C)cc1` (stereo partly drawn) [I-50, (2S,4R)-1-(2-(3-(2-(4-(2-(3-(3-amino-6-(2-hydroxyphenyl)pyridazin-4-yl)-3,8-diazabicyclo[3.2.1]octan-8-yl)pyrimidin-5-yl)piperidin-1-yl)ethoxy)isoxazol-5-yl)-3-methylbutanoyl)-4-hydroxy-N-(4-(4-methylthiazol-5-yl)benzyl)pyrrolidine-2-carboxamide], the Dmax (SMARCA4) was > 90%, the DC50 (SMARCA4) was < 0.1 µM and the Dmax (SMARCA2 [1]) was > 90%. The DC50 (SMARCA2 [1]) was < 0.1 µM, the Dmax (SMARCA2 [2]) was > 90% and the DC50 (SMARCA2 [2]) was < 0.1 µM.

With `Cc1ncsc1-c1ccc(CNC(=O)[C@@H]2C[C@@H](O)CN2C(=O)[C@@H](NC(=O)C2CC3(C2)CC(N2CCC(Oc4cc(N5C6CCC5CN(c5cc(-c7ccccc7O)nnc5N)C6)ccn4)CC2)C3)C(C)(C)C)cc1` (stereo partly drawn) [I-38, (2S,4R)-1-((2S)-2-(6-(4-((4-(3-(3-amino-6-(2-hydroxyphenyl)pyridazin-4-yl)-3,8-diazabicyclo[3.2.1]octan-8-yl)pyridin-2-yl)oxy)piperidin-1-yl)spiro[3.3]heptane-2-carboxamido)-3,3-dimethylbutanoyl)-4-hydroxy-N-(4-(4-methylthiazol-5-yl)benzyl)pyrrolidine-2-carboxamide] the Dmax (SMARCA4) was > 90%, the DC50 (SMARCA4) was > 1 µM and the Dmax (SMARCA2 [1]) was 70 to 90%. For the same compound, the DC50 (SMARCA2 [1]) was > 1 µM, the Dmax (SMARCA2 [2]) was < 50% and the DC50 (SMARCA2 [2]) was > 1 µM.

With `Cc1ncsc1-c1ccc(CNC(=O)[C@@H]2C[C@H](O)CN2C(=O)[C@@H](NC(=O)[C@H]2CC3(C2)C[C@H](N2CCC(c4cnc(N5C6CCC5CN(c5cc(-c7ccccc7O)nnc5N)C6)nc4)CC2)C3)C(C)(C)C)cc1` (stereo partly drawn) [I-79, (2S,4S)-1-((2S)-2-(6-(4-(2-(3-(3-amino-6-(2-hydroxyphenyl)pyridazin-4-yl)-3,8-diazabicyclo[3.2.1]octan-8-yl)pyrimidin-5-yl)piperidin-1-yl)spiro[3.3]heptane-2-carboxamido)-3,3-dimethylbutanoyl)-4-hydroxy-N-(4-(4-methylthiazol-5-yl)benzyl)pyrrolidine-2-carboxamide] the Dmax (SMARCA4) was < 50%, the DC50 (SMARCA4) was > 1 µM and the Dmax (SMARCA2 [1]) was < 50%. The DC50 (SMARCA2 [1]) was > 1 µM, the Dmax (SMARCA2 [2]) was < 50% and the DC50 (SMARCA2 [2]) was > 1 µM.

`Cc1ncsc1-c1ccc(CNC(=O)[C@@H]2C[C@@H](O)CN2C(=O)[C@@H](c2cc(OCCCCN3CCC(c4cnc(N5C6CCC5CN(c5cc(-c7ccccc7O)nnc5N)C6)nc4)CC3)no2)C(C)C)cc1` [I-55, (2S,4R)-1-((2R)-2-(3-(4-(4-(2-(3-(3-amino-6-(2-hydroxyphenyl)pyridazin-4-yl)-3,8-diazabicyclo[3.2.1]octan-8-yl)pyrimidin-5-yl)piperidin-1-yl)butoxy)isoxazol-5-yl)-3-methylbutanoyl)-4-hydroxy-N-(4-(4-methylthiazol-5-yl)benzyl)pyrrolidine-2-carboxamide] was tested, and the Dmax (SMARCA4) was > 90%, the DC50 (SMARCA4) was < 0.1 µM and the Dmax (SMARCA2 [1]) was > 90%. The DC50 (SMARCA2 [1]) was < 0.1 µM, the Dmax (SMARCA2 [2]) was > 90% and the DC50 (SMARCA2 [2]) was < 0.1 µM.

With `Cc1ncsc1-c1ccc(CNC(=O)[C@@H]2C[C@@H](O)CN2C(=O)[C@@H](NC(=O)[C@H]2CCC3(CC2)C[C@H](N2CCC(c4cnc(N5C6CCC5CN(c5cc(-c7ccccc7O)nnc5N)C6)nc4)CC2)C3)C(C)(C)C)cc1` (stereo partly drawn) [I-42, (2S,4R)-1-((2S)-2-(2-(4-(2-(3-(3-amino-6-(2-hydroxyphenyl)pyridazin-4-yl)-3,8-diazabicyclo[3.2.1]octan-8-yl)pyrimidin-5-yl)piperidin-1-yl)spiro[3.5]nonane-7-carboxamido)-3,3-dimethylbutanoyl)-4-hydroxy-N-(4-(4-methylthiazol-5-yl)benzyl)pyrrolidine-2-carboxamide] the Dmax (SMARCA4) was < 50%, the DC50 (SMARCA4) was > 1 µM and the Dmax (SMARCA2 [1]) was 70 to 90%. The DC50 (SMARCA2 [1]) was 0.1 to 0.5 µM, the Dmax (SMARCA2 [2]) was 70 to 90% and the DC50 (SMARCA2 [2]) was < 0.1 µM.

With `Cc1ncsc1-c1ccc(CNC(=O)[C@@H]2C[C@@H](O)CN2C(=O)C(c2cc(N3CCC(CCN4CCC(c5cnc(N6C7CCC6CN(c6cc(-c8ccccc8O)nnc6N)C7)nc5)CC4)CC3)no2)C(C)C)cc1` (stereo partly drawn) [I-61, (2S,4R)-1-(2-(3-(4-(2-(4-(2-(3-(3-amino-6-(2-hydroxyphenyl)pyridazin-4-yl)-3,8-diazabicyclo[3.2.1]octan-8-yl)pyrimidin-5-yl)piperidin-1-yl)ethyl)piperidin-1-yl)isoxazol-5-yl)-3-methylbutanoyl)-4-hydroxy-N-(4-(4-methylthiazol-5-yl)benzyl)pyrrolidine-2-carboxamide] the Dmax (SMARCA4) was > 90%, the DC50 (SMARCA4) was < 0.1 µM and the Dmax (SMARCA2 [1]) was > 90%. For the same compound, the DC50 (SMARCA2 [1]) was < 0.1 µM, the Dmax (SMARCA2 [2]) was > 90% and the DC50 (SMARCA2 [2]) was < 0.1 µM.

`Cc1ncsc1-c1ccc(C2(NC(=O)[C@@H]3C[C@@H](O)CN3C(=O)[C@@H](NC(=O)[C@H]3CC4(C3)C[C@H](N3CCC(c5cnc(N6C7CCC6CN(c6cc(-c8ccccc8O)nnc6N)C7)nc5)CC3)C4)C(C)(C)C)CC2)cc1` (single isomer, unassigned) [I-3] was tested, and the Dmax (SMARCA4) was 70 to 90%, the DC50 (SMARCA4) was < 0.1 µM and the Dmax (SMARCA2 [1]) was > 90%. For the same compound, the DC50 (SMARCA2 [1]) was < 0.1 µM, the Dmax (SMARCA2 [2]) was > 90% and the DC50 (SMARCA2 [2]) was < 0.1 µM.
